Results reported in patent US6403594B1, “Benzopyran derivatives” (Recordati, S.A. Chemical and Pharmaceutical Company, priority 1999, dated 2002).

Key:
[1] = target: T1, α1d-adrenoceptor (recombinant) (Homo sapiens, UniProt P25100); assay: Radioligand binding, cloned α1d-adrenoceptor ([3H]prazosin); conditions: read-out: Affinity for recombinant α1d-adrenoceptor, cloned receptors (Ki)
T1 sequence (P25100 1-572): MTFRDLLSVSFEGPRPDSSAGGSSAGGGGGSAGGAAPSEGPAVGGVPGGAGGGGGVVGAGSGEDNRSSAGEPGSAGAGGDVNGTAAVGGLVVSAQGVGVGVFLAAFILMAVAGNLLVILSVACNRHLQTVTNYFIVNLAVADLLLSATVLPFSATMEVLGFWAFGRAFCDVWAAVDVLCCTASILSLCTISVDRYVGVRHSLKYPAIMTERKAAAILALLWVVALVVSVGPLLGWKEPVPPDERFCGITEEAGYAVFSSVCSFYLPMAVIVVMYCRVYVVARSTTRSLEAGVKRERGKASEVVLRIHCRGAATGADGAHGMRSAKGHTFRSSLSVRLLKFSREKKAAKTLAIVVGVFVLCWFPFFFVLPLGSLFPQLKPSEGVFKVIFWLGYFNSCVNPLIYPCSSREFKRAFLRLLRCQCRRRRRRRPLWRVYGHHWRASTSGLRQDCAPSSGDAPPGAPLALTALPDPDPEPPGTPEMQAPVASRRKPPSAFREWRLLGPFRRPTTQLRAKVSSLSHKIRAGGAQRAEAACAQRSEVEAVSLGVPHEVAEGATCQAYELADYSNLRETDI
Experimental: (§1) Determination of affinity for cloned subtypes of α1-adrenoceptor subtypes was performed in membranes from cells transfected by electroporation with DNA expressing the genes encoding each α1-adrenoceptor subtype.
(§2) Non-specific binding was determined in the presence of 10 μM phentolamine.
(§3) Incubation was stopped by addition of ice-cold Tris buffer and rapid filtration through 0.2% polyethyleneimine-pretreated Schleicher & Schuell GF52 filters.
(§4) Data were expressed as mean Ki.

[2] = target: T2, α1b-adrenoceptor (recombinant) (Homo sapiens, UniProt P35368); assay: Radioligand binding, cloned α1b-adrenoceptor ([3H]prazosin); conditions: read-out: Affinity for recombinant α1b-adrenoceptor, cloned receptors (Ki)
T2 construct: expressed in transfected cells
T2 sequence (P35368 1-520): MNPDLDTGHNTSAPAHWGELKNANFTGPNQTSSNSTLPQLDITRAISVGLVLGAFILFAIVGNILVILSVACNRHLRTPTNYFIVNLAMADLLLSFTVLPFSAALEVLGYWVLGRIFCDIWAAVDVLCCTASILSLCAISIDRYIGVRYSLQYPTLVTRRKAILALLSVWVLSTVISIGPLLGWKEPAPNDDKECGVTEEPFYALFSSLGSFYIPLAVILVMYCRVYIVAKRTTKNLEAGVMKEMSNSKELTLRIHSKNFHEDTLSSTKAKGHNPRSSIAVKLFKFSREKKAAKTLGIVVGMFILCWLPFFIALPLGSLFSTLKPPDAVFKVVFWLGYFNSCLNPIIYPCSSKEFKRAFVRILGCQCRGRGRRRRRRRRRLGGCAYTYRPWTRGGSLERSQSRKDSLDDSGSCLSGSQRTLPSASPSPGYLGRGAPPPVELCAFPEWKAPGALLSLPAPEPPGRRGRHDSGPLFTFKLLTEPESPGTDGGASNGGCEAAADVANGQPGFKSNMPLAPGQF
Experimental: as §1, §2, §3, §4

[3] = target: T3, α1a-adrenoceptor (recombinant) (Homo sapiens, UniProt P35348); assay: Radioligand binding, cloned α1a-adrenoceptor ([3H]prazosin); conditions: read-out: Affinity for recombinant α1a-adrenoceptor, cloned receptors (Ki)
T3 construct: expressed in transfected cells
T3 sequence (P35348 1-466): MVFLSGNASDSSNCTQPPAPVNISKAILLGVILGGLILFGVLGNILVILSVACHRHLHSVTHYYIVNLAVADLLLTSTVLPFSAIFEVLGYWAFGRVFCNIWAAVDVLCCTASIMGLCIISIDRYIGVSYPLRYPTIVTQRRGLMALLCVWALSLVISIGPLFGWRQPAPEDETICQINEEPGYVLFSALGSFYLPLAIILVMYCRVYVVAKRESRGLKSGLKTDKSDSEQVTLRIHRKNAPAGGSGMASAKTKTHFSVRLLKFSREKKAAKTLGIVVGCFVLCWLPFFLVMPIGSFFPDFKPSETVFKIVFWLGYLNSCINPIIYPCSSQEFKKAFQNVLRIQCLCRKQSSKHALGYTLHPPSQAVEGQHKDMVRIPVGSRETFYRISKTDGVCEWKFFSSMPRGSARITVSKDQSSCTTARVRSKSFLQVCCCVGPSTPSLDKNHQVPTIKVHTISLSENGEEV
Experimental: as §1, §2, §3, §4

α1L adrenoceptor = target: T4, α1L adrenoceptor (Oryctolagus cuniculus, UniProt O02824); assay: Functional antagonism of noradrenaline-induced contractions of rabbit aorta pretreated with chloroethylclonidine; assay type: biochemical; conditions: NA-induced contractions of rabbit aorta pretreated with chloroethylclonidine
T4 sequence (O02824 1-466): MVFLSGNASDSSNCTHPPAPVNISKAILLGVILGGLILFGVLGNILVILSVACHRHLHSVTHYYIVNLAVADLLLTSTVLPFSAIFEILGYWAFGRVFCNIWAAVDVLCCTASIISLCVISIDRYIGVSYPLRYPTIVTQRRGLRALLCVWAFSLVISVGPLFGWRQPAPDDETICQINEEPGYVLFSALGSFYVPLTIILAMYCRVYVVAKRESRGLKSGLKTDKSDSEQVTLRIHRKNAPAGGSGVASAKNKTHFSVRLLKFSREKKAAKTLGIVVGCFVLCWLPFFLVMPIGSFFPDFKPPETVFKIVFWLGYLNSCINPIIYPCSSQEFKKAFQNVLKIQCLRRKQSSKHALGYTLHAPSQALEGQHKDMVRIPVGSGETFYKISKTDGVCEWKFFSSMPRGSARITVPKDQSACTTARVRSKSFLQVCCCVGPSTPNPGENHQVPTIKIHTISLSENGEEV
Experimental: Adult male New Zealand rabbits were sacrificed by cervical dislocation. The aorta was removed, placed in Krebs-Henseleit buffer and dissected free of adhering tissue. […] Desmethylimipramine (0.1 μm) and corticosterone (1 μM) to block neuronal and extraneuronal uptake of NA, (±)-propranol (1 μM) to block β adrenoceptors and yohimbine (0.1 μM) to block α2 adrenoceptors, were added to the buffer.
The preparations were allowed to equilibrate for 60 minutes and then primed every thirty minutes with 10 μM NA for three times. The aortic rings were then incubated with the alkylating agent chloroethylclonidine (5×10^−5 M) for 30 minutes and then washed extensively three times (in 0.5 hours) before constructing the NA-concentration/response curve. After washout of NA and re-equilibration of the tissue (45 minutes), the drug to be tested was added and, after 30 minutes, a second NA-cumulative-concentration/response curve constructed.
Each antagonist concentration was tested using 2-3 aortic rings from different rabbits.
Dose ratios (i.e., the ratio between the concentrations of NA required to produce half-maximal response in the presence and in the absence of the test antagonist) were calculated for each concentration of the compounds. The logarithm of these dose ratio-1 was plotted against the logarithm of the compound concentrations (Schild plot) to evaluate the affinity constant Kb.
When only one or two concentrations of the test compounds were utilised, the apparent Kb value was calculated using the formula: Kb=[B]/(DOSE RATIO-1), where B is the antagonist concentration.

[4] = target: T5, 5HT1A-serotoninergic receptor (Homo sapiens, UniProt P08908); assay: Radioligand binding, cloned 5-HT1A-serotoninergic receptor in HeLa membranes ([3H]8-OH-DPAT); set-up: expressed in transfected cells; host or cells: HeLa; conditions: cloned human 5-HT1A receptor in HeLa membranes, mean Ki, read-out: Affinity for 5-HT1A receptor, cloned receptors (Ki)
T5 sequence (P08908 1-422): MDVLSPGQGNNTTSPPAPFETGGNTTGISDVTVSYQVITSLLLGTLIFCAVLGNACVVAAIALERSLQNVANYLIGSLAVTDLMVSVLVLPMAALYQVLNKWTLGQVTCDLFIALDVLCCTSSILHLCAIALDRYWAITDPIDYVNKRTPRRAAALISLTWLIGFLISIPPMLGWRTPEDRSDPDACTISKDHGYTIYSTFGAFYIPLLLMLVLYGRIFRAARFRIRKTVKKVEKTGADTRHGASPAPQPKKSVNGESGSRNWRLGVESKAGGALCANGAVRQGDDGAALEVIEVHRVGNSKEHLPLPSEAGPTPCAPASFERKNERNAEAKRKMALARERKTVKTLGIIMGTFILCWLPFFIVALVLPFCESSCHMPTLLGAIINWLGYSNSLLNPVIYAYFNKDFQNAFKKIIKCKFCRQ
Experimental: HeLa cells were grown as monolayers in Dulbecco's Modified Eagle medium (DMEM) supplemented with 10% foetal calf serum and gentamicin (100 μg/mL), 5% CO2, at 37° C. The cells were detached from the growth flask at 95% confluence by a cell scraper and were lysed in ice-cold Tris-5-mM and EDTA-5-mM buffer (pH 7.4). The homogenates were centrifuged at 40000×g×20 minutes and the membranes were resuspended in a small volume of ice-cold buffer containing Tris 5 mM and EDTA 5 mM (pH 7.4), and immediately frozen and stored at −70° C. until use.
Non-specific binding was determined in the presence of 10 μM 5-HT. The incubation was stopped by addition of ice-cold Tris buffer and rapid filtration through 0.2% polyethyleneimine-pretreated Schleicher & Schuell filters.
as §4

Structure (SMILES)	Ki [1] [nM]	Ki [2] [nM]	Ki [3] [nM]	Functional affinity for the α1L adrenoceptor subtype, pKb (α1L adrenoceptor)	Ki [4] [nM]
COc1ccc(Cl)cc1N1CCN(CCCNC(=O)c2cccc3c(=O)c(C)c(NC(=O)OC(C)(C)C)oc23)CC1.O [Example 3, 2-(1,1-Dimethylethoxycarbonylamino)-8-{3-[4-(5-chloro-2-methoxyphenyl)-1-piperazinyl]propylcarbamoyl}-3-methyl-4-oxo-4H-1-benzopyran monohydrate]	0.45	0.32	0.2	8.43	81.9
COc1ccc(Cl)cc1N1CCN(CCCNC(=O)c2cccc3c(=O)c(C)c(C(=O)N(C)C)oc23)CC1 [Example 6, 8-{3-[4-(5-Chloro-2-methoxyphenyl)-1-piperazinyl]propylcarbamoyl}-3-methyl-2-dimethylcarbamoyl-4-oxo-4H-1-benzopyran]	3.83	3.56	0.23	8.55	68.4
COc1ccc(C(F)(F)F)cc1N1CCN(CCCNC(=O)c2cccc3c(=O)c(C)c(-c4ccccc4)oc23)CC1 [Example 17, 8-{3-[4-(2-Methoxy-5-trifluoromethylphenyl)-1-piperazinyl]propylcarbamoyl}-3-methyl-4-oxo-2-phenyl-4H-1-benzopyran]	13.1	9.42	1.6	8.03	–
Cc1c(-c2ccccc2)oc2c(C(=O)NCCCN3CCN(c4ccc(F)cc4OCC(F)(F)F)CC3)cccc2c1=O [Example 19, 8-<3-{4-[4-Fluoro-2-(2,2,2-trifluoroethoxy)phenyl]-1-piperazinyl}propylcarbamoyl>-3-methyl-4-oxo-2-phenyl-4H-1-benzopyran]	4.79	2.61	0.136	8.72	22.4

Continued by falling Ki [1], values first:

Ki [1] [nM]	Ki [2] [nM]	Ki [3] [nM]	Functional affinity for the α1L adrenoceptor subtype, pKb (α1L adrenoceptor)	Ki [4] [nM]	Structure (SMILES)
3.02	9.91	0.144	9	39.5	Cc1c(C(N)=O)oc2c(C(=O)NCCCN3CCN(c4cc(F)ccc4OCC(F)(F)F)CC3)cccc2c1=O [Example 8, 2-Carbamoyl-8-<3-{4-[5-fluoro-2-(2,2,2-trifluoroethoxy)phenyl]-1-piperazinyl}-propylcarbamoyl>-3-methyl-4-oxo-4H-1-benzopyran]
2.72	0.78	0.38	8.45	24.4	COc1ccc(Cl)cc1N1CCN(CCCNC(=O)c2cccc3c(=O)c(C)c(C#N)oc23)CC1 [Example 11, 8-{3-[4-(5-Chloro-2-methoxyphenyl)-1-piperazinyl]propylcarbamoyl}-2-cyano-3-methyl-4-oxo-4H-1-benzopyran]
